{"source": "patent US20080131492A1", "about": "“Dosage forms for movement disorder treatment” (Spherics, Inc., priority 2006, published 2008)", "origin": "cited, not measured here", "details": "doses of 400 mg per day", "data": [{"smiles": "C[C@@](Cc1ccc(O)c(O)c1)(NN)C(=O)O", "note": "[carbidopa]", "values": [{"measurement": "adverse effects", "value": "fails to elicit adverse effects"}]}]}
